Reference: patent publication US11306092B2, “Amino indole compounds useful as TLR inhibitors” (BRISTOL-MYERS SQUIBB COMPANY, priority 2017, dated 2022)

What was measured:
Assay type in all cases: cell-based
human TLR7 = target: T1, human TLR7 (Homo sapiens, UniProt Q9NYK1); assay: TLR7 inhibition reporter assay (HEK-Blue SEAP reporter); conditions: HEK-Blue cells overexpressing human TLR7; gardiquimod 7.5 μM; 22 hour incubation
T1 construct: host or cells: HEK-Blue cells
T1 sequence (Q9NYK1 27-1049): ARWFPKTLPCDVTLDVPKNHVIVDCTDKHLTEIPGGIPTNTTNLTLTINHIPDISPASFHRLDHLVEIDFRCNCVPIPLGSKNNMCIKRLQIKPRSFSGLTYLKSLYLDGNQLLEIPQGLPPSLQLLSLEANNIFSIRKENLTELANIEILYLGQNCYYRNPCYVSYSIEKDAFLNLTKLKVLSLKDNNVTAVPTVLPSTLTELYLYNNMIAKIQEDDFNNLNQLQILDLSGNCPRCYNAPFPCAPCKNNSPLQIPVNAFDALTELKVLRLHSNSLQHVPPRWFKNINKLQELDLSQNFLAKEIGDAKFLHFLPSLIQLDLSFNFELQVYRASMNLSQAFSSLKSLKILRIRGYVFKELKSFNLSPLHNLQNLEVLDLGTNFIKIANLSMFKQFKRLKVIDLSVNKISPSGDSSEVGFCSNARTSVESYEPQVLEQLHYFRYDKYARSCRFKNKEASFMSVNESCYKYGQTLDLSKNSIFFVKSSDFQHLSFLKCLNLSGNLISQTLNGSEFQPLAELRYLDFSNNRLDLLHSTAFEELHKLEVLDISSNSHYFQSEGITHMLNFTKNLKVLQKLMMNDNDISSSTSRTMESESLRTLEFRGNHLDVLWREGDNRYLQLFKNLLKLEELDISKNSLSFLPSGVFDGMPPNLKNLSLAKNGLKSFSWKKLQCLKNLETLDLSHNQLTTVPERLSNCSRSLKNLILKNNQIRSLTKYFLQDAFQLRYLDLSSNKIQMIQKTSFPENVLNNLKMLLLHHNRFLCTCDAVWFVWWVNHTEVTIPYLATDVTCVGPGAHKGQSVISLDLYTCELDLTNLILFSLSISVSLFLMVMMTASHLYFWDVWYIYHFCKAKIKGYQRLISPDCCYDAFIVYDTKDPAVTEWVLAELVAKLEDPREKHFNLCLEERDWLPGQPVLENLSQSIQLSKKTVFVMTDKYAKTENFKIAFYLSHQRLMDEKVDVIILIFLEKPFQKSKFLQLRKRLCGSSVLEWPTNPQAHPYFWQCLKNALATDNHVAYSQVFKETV
In short: (§1)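 Agonists used: gardiquimod 7.5 μM (TLR7), R848 15.9 μM (TLR8), ODN2006 5 nM (TLR9), added after 30 min room-temperature compound pre-treatment (0.05 nM–50 μM) of receptor-overexpressing HEK-Blue cells. SEAP reporter (NF-κB/AP-1 driven) read after 22 h at 37 °C; inhibition scaled between agonist+DMSO and reference-inhibitor wells.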

human TLR9 = target: T2, human TLR9 (Homo sapiens, UniProt Q9NR96); assay: TLR9 inhibition reporter assay (HEK-Blue SEAP reporter); conditions: HEK-Blue cells overexpressing human TLR9; ODN2006 5 nM; 22 hour incubation
T2 construct: host or cells: HEK-Blue cells
T2 sequence (Q9NR96 26-1032): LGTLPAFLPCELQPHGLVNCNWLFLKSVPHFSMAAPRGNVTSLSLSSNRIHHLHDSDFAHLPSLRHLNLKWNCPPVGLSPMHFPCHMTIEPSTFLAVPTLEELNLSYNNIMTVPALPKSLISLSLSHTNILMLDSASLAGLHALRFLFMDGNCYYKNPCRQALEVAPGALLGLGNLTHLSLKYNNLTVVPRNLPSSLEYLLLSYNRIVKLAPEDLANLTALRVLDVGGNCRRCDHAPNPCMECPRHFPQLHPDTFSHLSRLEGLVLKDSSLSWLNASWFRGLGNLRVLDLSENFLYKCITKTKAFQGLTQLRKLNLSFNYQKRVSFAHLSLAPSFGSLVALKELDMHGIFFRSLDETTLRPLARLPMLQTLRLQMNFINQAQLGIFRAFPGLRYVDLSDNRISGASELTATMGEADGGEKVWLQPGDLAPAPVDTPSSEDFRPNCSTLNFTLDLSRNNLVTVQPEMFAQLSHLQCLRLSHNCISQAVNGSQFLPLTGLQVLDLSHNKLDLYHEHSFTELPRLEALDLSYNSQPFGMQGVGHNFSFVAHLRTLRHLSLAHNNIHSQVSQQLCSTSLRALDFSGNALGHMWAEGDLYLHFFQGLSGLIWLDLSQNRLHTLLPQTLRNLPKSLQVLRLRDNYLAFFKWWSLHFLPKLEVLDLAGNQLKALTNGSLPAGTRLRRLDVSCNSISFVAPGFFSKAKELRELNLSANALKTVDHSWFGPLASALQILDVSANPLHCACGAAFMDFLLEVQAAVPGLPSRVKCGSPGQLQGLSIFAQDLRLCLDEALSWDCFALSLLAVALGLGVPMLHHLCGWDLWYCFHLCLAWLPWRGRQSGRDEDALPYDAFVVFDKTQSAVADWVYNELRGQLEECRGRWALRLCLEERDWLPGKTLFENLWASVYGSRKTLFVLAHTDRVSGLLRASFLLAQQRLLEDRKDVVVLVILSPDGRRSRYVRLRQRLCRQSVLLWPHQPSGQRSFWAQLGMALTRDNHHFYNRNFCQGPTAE
In short: as §1

human TLR8 = target: T3, human TLR8 (Homo sapiens, UniProt Q9NR97); assay: TLR8 inhibition reporter assay (HEK-Blue SEAP reporter); conditions: HEK-Blue cells overexpressing human TLR8; R848 15.9 μM; 22 hour incubation
T3 construct: host or cells: HEK-Blue cells
T3 sequence (Q9NR97 27-1041): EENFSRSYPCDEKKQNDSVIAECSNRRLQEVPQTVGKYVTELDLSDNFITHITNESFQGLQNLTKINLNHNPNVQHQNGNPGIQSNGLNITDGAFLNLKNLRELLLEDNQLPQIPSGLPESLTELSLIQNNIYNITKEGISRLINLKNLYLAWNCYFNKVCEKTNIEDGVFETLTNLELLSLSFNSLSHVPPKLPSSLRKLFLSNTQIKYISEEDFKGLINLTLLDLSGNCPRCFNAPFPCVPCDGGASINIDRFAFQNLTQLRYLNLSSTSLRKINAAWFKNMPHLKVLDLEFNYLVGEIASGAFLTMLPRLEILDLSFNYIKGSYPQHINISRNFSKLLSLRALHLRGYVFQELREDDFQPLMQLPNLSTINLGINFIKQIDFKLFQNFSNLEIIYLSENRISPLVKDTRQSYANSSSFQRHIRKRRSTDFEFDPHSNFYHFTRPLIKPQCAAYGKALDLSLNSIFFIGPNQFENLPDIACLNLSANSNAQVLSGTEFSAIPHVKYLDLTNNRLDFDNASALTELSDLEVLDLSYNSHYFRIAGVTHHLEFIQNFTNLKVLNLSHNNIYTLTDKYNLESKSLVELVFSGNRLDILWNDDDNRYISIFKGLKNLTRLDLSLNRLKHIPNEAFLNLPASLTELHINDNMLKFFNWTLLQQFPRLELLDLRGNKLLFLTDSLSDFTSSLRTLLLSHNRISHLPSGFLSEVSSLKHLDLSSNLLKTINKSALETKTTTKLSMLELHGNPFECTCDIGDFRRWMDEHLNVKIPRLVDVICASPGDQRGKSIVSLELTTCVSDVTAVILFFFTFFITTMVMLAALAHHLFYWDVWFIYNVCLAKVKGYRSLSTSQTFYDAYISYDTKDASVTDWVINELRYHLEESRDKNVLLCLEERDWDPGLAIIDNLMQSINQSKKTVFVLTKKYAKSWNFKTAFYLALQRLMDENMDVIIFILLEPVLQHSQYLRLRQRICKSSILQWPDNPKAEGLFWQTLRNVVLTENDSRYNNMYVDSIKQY
In short: as §1

Compound | IC50 (human TLR7) [nM] | IC50 (human TLR9) [nM] | IC50 (human TLR8) [nM]
CCc1c(-c2ccnc(C)c2)[nH]c2ccc(N3CCN(C4CCN(CC)CC4)CC3)cc12 [Example 142, 3-ethyl-5-(4-(1-ethylpiperidin-4-yl)piperazin-1-yl)-2-(2-methylpyridin-4-yl)-1H-indole] | 3670 | 225 | 7880
CCc1c(-c2ccnc(C)c2)[nH]c2ccc(N3CCN(C4CCN(C(C)C)CC4)CC3)cc12 [Example 147, 3-ethyl-5-(4-(1-isopropylpiperidin-4-yl)piperazin-1-yl)-2-(2-methylpyridin-4-yl)-1H-indole] | 4650 | 227 | 17900
Cc1c(-c2ccnc3[nH]ccc23)[nH]c2ccc(N3CCN(C4CCN(C(C)C)CC4)CC3)cc12 [Example 151, 4-(5-(4-(1-isopropylpiperidin-4-yl)piperazin-1-yl)-3-methyl-1H-indol-2-yl)-1H-pyrrolo[2,3-b]pyridine] | 4230 | 327 | 47500
CCc1c(-c2ccnc(OC)c2)[nH]c2ccc(N3CCN(C4CCN(C(C)C)CC4)CC3)cc12 [Example 153, 3-ethyl-5-(4-(1-isopropylpiperidin-4-yl)piperazin-1-yl)-2-(2-methoxypyridin-4-yl)-1H-indole] | 83 | 755 | 11
CCc1c(-c2ccnc3[nH]ccc23)[nH]c2ccc(N3CCN(C4CCN(C(C)C)CC4)CC3)cc12 [Example 157, 4-(3-ethyl-5-(4-(1-isopropylpiperidin-4-yl)piperazin-1-yl)-1H-indol-2-yl)-1H-pyrrolo[2,3-b]pyridine] | 4230 | 559 | 635
Cc1c(-c2ccnc3[nH]ccc23)[nH]c2ccc(N3CCN(C4CCN(CC(C)C)CC4)CC3)cc12 [Example 158, 4-(5-(4-(1-isobutylpiperidin-4-yl)piperazin-1-yl)-3-methyl-H-indol-2-yl)-1H-pyrrolo[2,3-b]pyridine] | 12500 | 198 | 45400
CCc1c(-c2ccnc3[nH]ncc23)[nH]c2ccc(N3CCN(C4CCN(C(C)C)CC4)CC3)cc12 [Example 159, 4-(3-ethyl-5-(4-(1-isopropylpiperidin-4-yl)piperazin-1-yl)-1H-indol-2-yl)-1H-pyrazolo[3,4-b]pyridine] | 5640 | 684 | 6010

Second part, the molecule after the results:

IC50 (human TLR7) [nM] | IC50 (human TLR9) [nM] | IC50 (human TLR8) [nM] | Compound
75 | 839 | 10 | CCc1c(-c2ccnc(OC)c2)[nH]c2ccc(N3CCN(C4CCN(C)CC4)CC3)cc12 [Example 143, 3-ethyl-2-(2-methoxypyridin-4-yl)-5-(4-(1-methylpiperidin-4-yl)piperazin-1-yl)-1H-indole]
45 | 952 | 45 | CCc1c(-c2ccc(OC)c(OC)c2)[nH]c2cc(C)c(N3CCN(CCNC)CC3)cc12 [Example 144, 2-(4-(2-(3,4-dimethoxyphenyl)-3-ethyl-6-methyl-1H-indol-5-yl)piperazin-1-yl)-N-methylethan-1-amine]
206 | 1950 | 12 | C#CCCCN1CCN(c2ccc3[nH]c(-c4ccc(OC)c(OC)c4)c(C(C)C)c3c2)CC1 [Example 146, 2-(3,4-dimethoxyphenyl)-3-isopropyl-5-(4-(pent-4-yn-1-yl)piperazin-1-yl)-1H-indole]
96 | 446 | 32 | CCc1c(-c2ccnc(OC)c2)[nH]c2ccc(N3CCN(C4CCN(CC)CC4)CC3)cc12 [Example 148, 3-ethyl-5-(4-(1-ethylpiperidin-4-yl)piperazin-1-yl)-2-(2-methoxypyridin-4-yl)-1H-indole]
681 | 727 | 62 | COc1ccc(-c2[nH]c3ccc(N4CCN(C5CCN(C)CC5)CC4)cc3c2C)cc1OC [Example 149, 2-(3,4-dimethoxyphenyl)-3-methyl-5-(4-(1-methylpiperidin-4-yl)piperazin-1-yl)-1H-indole]
360 | 425 | 102 | CCc1c(-c2ccc(OC)c(OC)c2)[nH]c2ccc(N3CCN(CCNC)CC3(C)C)cc12 [Example 150, 2-(4-(2-(3,4-dimethoxyphenyl)-3-ethyl-1H-indol-5-yl)-3,3-dimethylpiperazin-1-yl)-N-methylethan-1-amine]
79 | 829 | 14 | CCc1c(-c2ccc(OC)c(OC)c2)[nH]c2ccc(N3CCN(C4CCN(C)CC4)CC3)cc12 [Example 154, 2-(3,4-dimethoxyphenyl)-3-ethyl-5-(4-(1-methylpiperidin-4-yl)piperazin-1-yl)-1H-indole]
52 | 597 | 6.6 | CCc1c(-c2cc(OC)nc(OC)c2)[nH]c2ccc(N3CCN(C4CCN(C)CC4)CC3)cc12 [Example 156, 2-(2,6-dimethoxypyridin-4-yl)-3-ethyl-5-(4-(1-methylpiperidin-4-yl)piperazin-1-yl)-1H-indole]
